Columns and labels:
[1] = system: HIV-IIIb; test: Test A: Antiviral assay in MT4 cells; type: cell-based, HIV-1; conditions: Human immunodeficiency virus 1, IIIB, MT4, 120 h, read-out: % inhibition at 2 μM, percent inhibition of virus-induced cell killing, from dose response curve at 2 uM drug; MT-4 cells infected with HIV-IIIb, 5 days, CellTiter-Glo
[2] = in vitro; conditions: human, uninfected MT-4 cells, CC50 (nM), same protocol as Test A, CellTiter-Glo
In short: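 Cytoprotection read-out: CellTiter-Glo chemiluminescence after 5 days at 37 °C of HIV-IIIb-infected MT-4 cells (m.o.i. 0.003) with compound in 10-point 3-fold dilutions, quadruplicate, 10% FBS. Cytotoxicity (CC50) measured identically without virus.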

Row | Compound | inhibition at 2 µM [1] | CC50 at 5 days [2]
1 | NC(=O)c1cc(-c2cccnc2[C@H](Cc2cccc(F)c2)NC(=O)Cn2nc(C(F)(F)F)c3c2CCSC3)ccc1F [Example 228B, (S)-2-fluoro-5-(2-(2-(3-fluorophenyl)-1-(2-(3-(trifluoromethyl)-6,7-dihydrothiopyrano[4,3-c]pyrazol-1(4H)-yl)acetamido)ethyl)pyridin-3-yl)benzamide] | 51% | 23400 nM
2 | NC(=O)c1cc(-c2cccnc2[C@H](Cc2cccc(F)c2)NC(=O)Cn2nc(C(F)(F)F)c3c2CCCC3)ccc1F [Example 229, (S)-2-fluoro-5-(2-(2-(3-fluorophenyl)-1-(2-(3-(trifluoromethyl)-4,5,6,7-tetrahydro-1H-indazol-1-yl)acetamido)ethyl)pyridin-3-yl)benzamide] | 95% | 18600 nM
3 | O=C(Cn1nc(C(F)F)c2c1C(F)(F)C1CC21)N[C@@H](Cc1cc(F)cc(F)c1)c1ncccc1-c1ccc(OC(F)(F)F)cc1 (stereo partly drawn) [Example 230, 2-(3-(difluoromethyl)-5,5-difluoro-3b,4,4a,5-tetrahydro-1H-cyclopropa[3,4]cyclopenta[1,2-c]pyrazol-1-yl)-N—((S)-2-(3,5-difluorophenyl)-1-(3-(4-(trifluoromethoxy)phenyl)pyridin-2-yl)ethyl)acetamide] | 66% | 14000 nM
4 | O=C(Cn1nc(C(F)F)c2c1C(F)(F)C1CC21)N[C@@H](Cc1cc(F)cc(F)c1)c1ncccc1-c1ccc(OC(F)F)cc1 (stereo partly drawn) [Example 231, N—((S)-1-(3-(4-(difluoromethoxy)phenyl)pyridin-2-yl)-2-(3,5-difluorophenyl)ethyl)-2-(3-(difluoromethyl)-5,5-difluoro-3b,4,4a,5-tetrahydro-1H-cyclopropa[3,4]cyclopenta[1,2-c]pyrazol-1-yl)acetamide] | 79% | 43200 nM
5 | NC(=O)c1cc(-c2cccnc2[C@H](Cc2cc(F)cc(F)c2)NC(=O)Cn2nc(C(F)(F)F)c3c2CCSC3)ccc1F [Example 232, (S)-5-(2-(2-(3,5-difluorophenyl)-1-(2-(3-(trifluoromethyl)-6,7-dihydrothiopyrano[4,3-c]pyrazol-1(4H)-yl)acetamido)ethyl)pyridin-3-yl)-2-fluorobenzamide] | 61% | 18700 nM
6 | NC(=O)c1cc(-c2cccnc2[C@H](Cc2cc(F)cc(F)c2)NC(=O)Cn2nc(C(F)F)c3c2C(=O)C2CC32)ccc1F (stereo partly drawn) [Example 233B, 5-(2-((1S)-1-(2-(3-(difluoromethyl)-5-oxo-3b,4,4a,5-tetrahydro-1H-cyclopropa[3,4]cyclopenta[1,2-c]pyrazol-1-yl)acetamido)-2-(3,5-difluorophenyl)ethyl)pyridin-3-yl)-2-fluorobenzamide] | 5% | 32200 nM
7 | CC1Cc2c(C(F)(F)F)nn(CC(=O)N[C@@H](Cc3cc(F)cc(F)c3)c3ncccc3-c3ccc(F)c(C(N)=O)c3)c2C1 (stereo partly drawn) [Example 234, 5-(2-((1S)-2-(3,5-difluorophenyl)-1-(2-(5-methyl-3-(trifluoromethyl)-5,6-dihydrocyclopenta[c]pyrazol-1(4H)-yl)acetamido)ethyl)pyridin-3-yl)-2-fluorobenzamide] | 73% | 15900 nM
8 | CN1Cc2c(C(F)(F)F)nn(CC(=O)N[C@@H](Cc3cc(F)cc(F)c3)c3ncccc3-c3ccc(F)c(C(N)=O)c3)c2C1 [Example 235, (S)-5-(2-(2-(3,5-difluorophenyl)-1-(2-(5-methyl-3-(trifluoromethyl)-5,6-dihydropyrrolo[3,4-c]pyrazol-1(4H)-yl)acetamido)ethyl)pyridin-3-yl)-2-fluorobenzamide] | 12% | > 53200 nM
9 | CC(C)c1cc(C(F)(F)F)n(CC(=O)N[C@@H](Cc2cc(F)cc(F)c2)c2ncccc2-c2ccc(F)c(C(N)=O)c2)n1 [Example 236D, (S)-5-(2-(2-(3,5-difluorophenyl)-1-(2-(3-isopropyl-5-(trifluoromethyl)-1H-pyrazol-1-yl)acetamido)ethyl)pyridin-3-yl)-2-fluorobenzamide] | 15% | 25600 nM
10 | NC(=O)c1cc(-c2cccnc2[C@H](Cc2cc(F)cc(F)c2)NC(=O)Cn2nc(C(F)(F)F)c3c2CC(=O)C3)ccc1F [Example 237, (S)-5-(2-(2-(3,5-difluorophenyl)-1-(2-(5-oxo-3-(trifluoromethyl)-5,6-dihydrocyclopenta[c]pyrazol-1(4H)-yl)acetamido)ethyl)pyridin-3-yl)-2-fluorobenzamide] | 1% | 38200 nM
11 | CC(C)(C)c1cc(C(F)(F)F)n(CC(=O)N[C@@H](Cc2cc(F)cc(F)c2)c2ncccc2-c2ccc(F)c(C(N)=O)c2)n1 [Example 238E, (S)-5-(2-(1-(2-(3-(tert-butyl)-5-(trifluoromethyl)-1H-pyrazol-1-yl)acetamido)-2-(3,5-difluorophenyl)ethyl)pyridin-3-yl)-2-fluorobenzamide] | 12% | 17000 nM
12 | NC(=O)c1cc(-c2cccnc2[C@H](Cc2cc(F)cc(F)c2)NC(=O)Cn2nc(C(F)(F)F)c3c2CC(F)(F)C3)ccc1F [Example 239, (S)-5-(2-(1-(2-(5,5-difluoro-3-(trifluoromethyl)-5,6-dihydrocyclopenta[c]pyrazol-1(4H)-yl)acetamido)-2-(3,5-difluorophenyl)ethyl)pyridin-3-yl)-2-fluorobenzamide] | 18% | 19400 nM
13 | NC(=O)c1cc(-c2cccnc2[C@H](Cc2cc(F)cc(F)c2)NC(=O)Cn2nc(C(F)F)c3c2CC(F)(F)C3)ccc1F [Example 241D, (S)-5-(2-(1-(2-(3-(difluoromethyl)-5,5-difluoro-5,6-dihydrocyclopenta[c]pyrazol-1(4H)-yl)acetamido)-2-(3,5-difluorophenyl)ethyl)pyridin-3-yl)-2-fluorobenzamide] | 78% | 25400 nM
14 | N#Cc1nn(CC(=O)N[C@@H](Cc2cc(F)cc(F)c2)c2ncccc2-c2ccc(F)c(C(N)=O)c2)c2c1C1CC1C2 (stereo partly drawn) [Example 242D, 5-(2-((1S)-1-(2-(3-cyano-3b,4,4a,5-tetrahydro-1H-cyclopropa[3,4]cyclopenta[1,2-c]pyrazol-1-yl)acetamido)-2-(3,5-difluorophenyl)ethyl)pyridin-3-yl)-2-fluorobenzamide] | 97% | 25500 nM
15 | NC(=O)c1cc(-c2cccnc2[C@H](Cc2cc(F)cc(F)c2)NC(=O)Cn2nc3c(c2C(F)F)C2CC2C3O)ccc1F (stereo partly drawn) [Example 243, 5-(2-((1S)-1-(2-(3-(difluoromethyl)-5-hydroxy-3b,4,4a,5-tetrahydro-2H-cyclopropa[3,4]cyclopenta[1,2-c]pyrazol-2-yl)acetamido)-2-(3,5-difluorophenyl)ethyl)pyridin-3-yl)-2-fluorobenzamide] | 33% | > 53200 nM
16 | CC(C)(C)c1cc(C(F)(F)F)nn1CC(=O)N[C@@H](Cc1cc(F)cc(F)c1)c1ncccc1-c1ccc(F)c(C(N)=O)c1 [Example 244B, (S)-5-(2-(1-(2-(5-(tert-butyl)-3-(trifluoromethyl)-1H-pyrazol-1-yl)acetamido)-2-(3,5-difluorophenyl)ethyl)pyridin-3-yl)-2-fluorobenzamide] | 0% | 16400 nM

— patent US9540343B2 (Gilead Sciences, Inc., priority 2011, dated 2017)
